Consider 1 compound from patent US5965605A, “Inhibition of the binding human IgE to its receptor by tetracyclic compounds for the alleviation of IgE-mediated immune response” (Heska Corporation, priority 1997, dated 1999).

The test system of data set [1] is IgE/FcεRI. Nature of the data set: Systemic PCA model in rats. Format: in vivo, Sprague Dawley rats. The procedure:
The compounds that have activity in the in situ PCA model were tested in the systemic PCA model. This model measures usefulness of a tetracyclic compound for blocking PCA in rats when the tetracyclic compound is administered systemically and the rats were sensitized with IgE at the skin. In this example, compound I was administrate first into the rats by intravenous (I.V.) injection, and immediately thereafter 0.03 μg/ml of anti-dinitrophenyl/IgE was injected into the skin of the shaved back of Sprague Dawley rats. After a sensitization period of 1 hr, the sensitized rats were challenged with an intravenous injection of 1 mg/ml of dinitrophenyl human albumin in 1% Evan's blue dye. Thirty minutes later, the rats were killed and skinned. As a positive control, PBS, lacking a tetracyclic compound, was administered by I.V. injection into Sprague Dawley rats, and the rats were treated in the same manner as the test rats. Percent inhibition of PCA obtained in this model is calculated by determining reduction of blue dye extracted from the tetracyclic compound treated rats compared to the positive control rats.

The test system of data set [2] is IgE/FcεRI. Nature of the data set: in situ rat passive cutaneous anaphylaxis (PCA) model. The following applies: for Percent inhibition of PCA reaction: injected into skin with 0.03 μg/ml IgE. Type of data set: in vivo, Sprague Dawley rats. The source says:
The tetracyclic compounds that antagonized the IgE and FcεRIα interaction identified in the protein-based assay were further evaluated in the rat PCA model (Haak-Frendscho, et al., J. Immunol., 151:351-358, 1993). […] Mouse anti-dinitrophenyl IgE (Sigma ImmunoChemicals, St. Louis, Mo.) is a bifunctional antibody which binds to dinitrophenyl as well as FcεRI. Exposure of anti-dinitrophenyl-IgE to dinitrophenyl-albumin causes aggregation of the antibody and induces the IgE mediated immune response. […] Fifty microliters of these solutions were injected into the skin of the shaved back of Sprague Dawley rats (Taconic, Germantown, N.Y.). As a positive control, the same amount of anti-dinitrophenyl-IgE in the absence of a tetracyclic compound was injected into the skin of the same rat at a different site. After a period of two hours the sensitized rats were challenged with an intravenous injection of 1 mg/ml of dinitrophenyl-human albumin (Sigma ImmunoChemicals, St. Louis, Mo.) in 1% Evan's blue dye. Thirty minute later, the rats were killed and skinned. Percent inhibition was calculated by the reduction of blue dye at the tetracyclic compound treated injection sites versus the positive control sites.

Data set [3] concerns the target T1, human FcεRI transfected rat basophil leukemia cell line, SX38 (Homo sapiens, UniProt P01854+P12319).
T1 construct: biotinylated recombinant IgE (mouse VH, human Cε, J558L)
Nature of the data set: Cell-based IgE-FcεRI binding assay. The procedure:
About 1×10^5 cells in 50 μl of medium were seeded in the wells of 96-well flat bottom plates. […] Forty microliters of this solution was applied to each well and incubated at room temperature for two hours. The plates were washed three times with PBS, and 40 μl of avidin-horseradish peroxidase, at 1 μg/ml in PBS, was added to each well. After an additional hour of incubation at room temperature, the plate was again washed three times with PBS. The subsequent steps for the measurement of the bound IgE were performed as described in the protein-based IgE-FcεRI binding assay.

The nature of data set [4]: Toxicity studies in mice, single I.V. injection. Type of data set: in vivo. From the text: The potential toxic side effects following systemic administration was investigated by administering compound 1 in PBS to mice in single I.V. injection.
A short description of data set [5]: Pharmacokinetic studies in rats. Type of data set: in vivo. The settings on record: blood, iv, rat, 10 mg/kg I.V. The procedure:
The pharmacokinetic (PK) profile of the compounds following systemic I.V. injection was measured. Compound 1 was formulated in PBS and given to a rat at 10 mg/kg. Blood was drawn from the rat at different time points after injection. The concentrations of compound 1 in the blood were measured by HPLC after separation from serum.

For data set [6], the target named is human IgE / soluble FcεRI α (Fc-FcεRIα fusion protein). Nature of the data set: Protein-based IgE-FcεRI binding assay (ELISA). The procedure: A protein-based in vitro assay was developed to screen for compounds which block the interaction between IgE and FcεRI. This assay used human IgE and soluble FcεRI α proteins which were prepared as outlined below. As will be described more below, the assay was performed in the format of an Enzyme-linked ImmunoSorbent Assay (ELISA) as follows. ELISA plates were prepared by coating 96-well plates with soluble FcεRI α protein. In the binding step, biotinylated IgE was captured by the FcεRI α in the wells. In the detection step, bound biotinylated IgE was quantitated by the addition of avidin-horseradish peroxidase and a chromogenic substrate. For the screening of antagonists, the IgE and FcεRI binding assay was performed in the presence of various testing compounds. Compounds that inhibit the interaction between IgE and FcεRI α could be readily detected. This assay was then applied to screen tens of thousand of compounds from a diversified chemical library.
To provide IgE for the ELISA, a recombinant IgE DNA construct was built by ligating a mouse heavy chain variable region, Vh, gene fragment to a human IgE heavy chain, Cε.
The growth medium collected from the above transfected cell culture was concentrated 30-50 times by membrane filtration (Filtron, Northboro, Mass.) and passed through a column of NIP (Genosys Biotechnologies Inc.)-bovine serum albumin (BSA) sepharose. The bound IgE was subsequently eluted from NIP-BSA sepharose using 5 M MgCl2. The eluate was then dialyzed in phosphate buffered saline (PBS). The integrity of the purified IgE was analyzed by SDS-polyacrylamide gel electrophoresis.
To provide soluble FcεRI α protein for ELISA, a DNA construct was made to produce soluble FcεRI α as a protein fused to the Fc region of the human immunoglobulin G heavy chain. The protein product of the construct will he termed Fc-FcεRIα.
The culture media of the cells producing Fc-FcεRI α fusion protein was collected and passed through a Protein A Sepharose column (Repligen, Cambridge, Mass.). The bound fusion protein was eluted from the Protein A Sepharose in 100 mM sodium citrate buffer (pH 4.0) and immediately neutralized with 0.1 volume of 1M Tris-hydrochloride, pH 8. The integrity of the purified protein was analyzed by SDS-polyacrylamide gel electrophoresis.
Fc-FcεRIα was diluted to 0.4 μg/ml in PBS and was used to coat 96-well plates. One hundred microliters of the FcεRIα fusion protein was added to wells of the 96-well plates, and the plate was incubated at 4° C. for 20 hr and washed twice with PBS/T (PBS containing 0.05% Tween-20). The non-specific binding sites in each of the wells were blocked with 200 μl of blocking buffer (PBS containing 1% of BSA and 1% of goat serum) at 37° C. for 2 hr. The plates were then washed 4 times with PBS/T and stored frozen at -20° C. The plates were thawed at room temperature just before use.
IgE was biotinylated as follows. Ten microliters of a 40 mg/ml sulfosuccimidyl 6-(biotinamido)-hexanolate (Pierce, Rockford, Ill.) in dimethylsulphoxide was added to 1 ml of 1 mg/ml IgE in sodium bicarbonate buffer, pH 8.0. After a 4 hr incubation at room temperature, the biotinylation was terminated by the addition of 25 μl of 2M Tris hydrochloride, pH 8 and the resulting biotinylated IgE was diayzed against PBS.
One hundred microliter of this solution was added to wells of a 96-well plate which had been previously coated with Fc-FcεRIα. […] After an additional one hour incubation at room temperature,the plate was again washed four times with PBS/T. The reaction with Avidin-HRP was developed by the addition of 100 μl of K-blue (Elisa Technologies, Lexington, Ky.) to each well.
In general terms: ELISA stands for enzyme-linked immunosorbent assay.

The term inhibition denotes the percentage by which the read-out fell short of the control. A high value points to a strong effect. The IC50 is the concentration at which inhibition is half-maximal. What is called LD50 is the dose at which mortality reaches 50%. High values mean lower toxicity, low ones greater toxicity.

Where only a bound is given, the exact number is not on record here.

T1 sequence (P12319 26-257): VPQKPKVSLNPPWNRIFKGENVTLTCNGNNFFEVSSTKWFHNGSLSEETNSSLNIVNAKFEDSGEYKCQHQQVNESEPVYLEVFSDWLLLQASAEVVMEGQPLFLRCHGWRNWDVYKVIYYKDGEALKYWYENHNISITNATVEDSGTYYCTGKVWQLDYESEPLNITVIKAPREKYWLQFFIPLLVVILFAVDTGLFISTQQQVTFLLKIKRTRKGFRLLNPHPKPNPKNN
T1 sequence (P01854 whole entry): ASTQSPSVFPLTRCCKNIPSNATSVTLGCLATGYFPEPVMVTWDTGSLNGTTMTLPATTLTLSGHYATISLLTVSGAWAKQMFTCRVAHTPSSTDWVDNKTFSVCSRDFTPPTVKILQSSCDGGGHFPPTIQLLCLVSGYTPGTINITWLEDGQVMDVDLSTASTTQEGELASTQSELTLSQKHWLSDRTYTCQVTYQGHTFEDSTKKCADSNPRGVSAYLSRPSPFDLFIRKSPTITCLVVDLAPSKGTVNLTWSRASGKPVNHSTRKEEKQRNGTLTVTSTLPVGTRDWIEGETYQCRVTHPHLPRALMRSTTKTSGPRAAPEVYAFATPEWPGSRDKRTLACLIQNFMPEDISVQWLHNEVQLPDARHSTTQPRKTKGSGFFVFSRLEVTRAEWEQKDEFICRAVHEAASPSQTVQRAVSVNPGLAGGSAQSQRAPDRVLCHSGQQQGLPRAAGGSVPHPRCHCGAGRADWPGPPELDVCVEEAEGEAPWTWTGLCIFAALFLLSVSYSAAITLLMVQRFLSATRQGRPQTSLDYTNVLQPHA
T1 sequence (Q01362 whole entry partner): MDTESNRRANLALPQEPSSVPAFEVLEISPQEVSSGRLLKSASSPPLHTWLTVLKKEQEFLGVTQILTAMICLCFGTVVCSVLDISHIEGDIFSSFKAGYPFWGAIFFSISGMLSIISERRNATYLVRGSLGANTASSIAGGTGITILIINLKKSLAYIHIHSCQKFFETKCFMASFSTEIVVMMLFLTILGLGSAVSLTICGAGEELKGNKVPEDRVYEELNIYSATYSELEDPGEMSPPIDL
T1 sequence (P30273 19-86 partner): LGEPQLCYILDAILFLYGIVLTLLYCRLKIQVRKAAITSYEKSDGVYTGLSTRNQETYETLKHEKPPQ

`O=C(O)c1c(Cl)c(Cl)c(Cl)c(Cl)c1-c1c2cc(I)c(=O)c(I)c-2oc2c(I)c(O)c(I)cc12` (single isomer, unassigned) [Compound 1]: the “% Inhibition of PCA” value in data set [1] (47 mg/kg I.V.) amounted to 2.0%; in data set [1] (70 mg/kg I.V.), 64.0%; in data set [1] (94 mg/kg I.V.) it was 104.0%; in data set [1] (114 mg/kg I.V.), 102.0%. Further, the “Percent inhibition of PCA reaction” value was found to be 5% in data set [2] (0.25 μg/ml), 66% in data set [2] (0.5 μg/ml) and 100% in data set [2] (1 μg/ml). The “IC50, inhibition of anaphylaxis in the rat PCA model” value in data set [2] (in situ rat PCA model) is 0.46 µg/mL. In addition, in data set [3] (10 μg/ml), the inhibition at 10 µg/mL was 46%. Besides, the IC50 in data set [3] (read-out: IC50, inhibition of IgE-FcεRI binding (converted)) was 12 µM. The “No. of Death” value in data set [4] (400 mg/kg I.V., single injection, 3 mice) is given as 0. Moreover, the LD50 in data set [4] (mouse, in vivo, iv, mice, single I.V. injection in PBS) is over 400 mg/kg. For the same compound, the concentration at 0 h in data set [5] (0 minute) amounted to 83000 ng/mL. The compound also yielded a concentration at 0.25 h in data set [5] (15 minute) of 2510 ng/mL. The compound also returned a concentration at 0.5 h in data set [5] (30 minute) of 902 ng/mL. Moreover, the concentration at 1 h in data set [5] (60 minute) stood at 720 ng/mL. The same compound displayed a concentration at 2 h in data set [5] (120 minute) of 625 ng/mL. The concentration at 4 h in data set [5] (240 minute) came out at 512 ng/mL. Also, the “IC50, inhibition of IgE/FcεRI binding” value in data set [6] worked out at 0.34 µg/mL. For the same compound, the “% Inhibition of IgE/FcεRI binding” value in data set [6] (10 μg/ml) was determined as 98%.
